Reference: ChEMBL document CHEMBL4813981, “Synthesis and in vitro antibacterial activity of new aminothiazole-oximepiperidone cephalosporins” (2021)
≈ marks a conversion by molar mass, not a printed value.

What was measured:
Assay type in all cases: functional
Enterococcus faecalis = assay: Antibacterial activity against Enterococcus faecalis ATCC 51299 assessed as reduction in bacterial growth
Klebsiella pneumoniae [1] = assay: Antibacterial activity against Klebsiella pneumoniae ATCC 700603 assessed as reduction in bacterial growth
Klebsiella pneumoniae [2] = assay: Antibacterial activity against Klebsiella pneumoniae ATCC BAA-1705 assessed as reduction in bacterial growth
Acinetobacter baumannii [3] = assay: Antibacterial activity against Multidrug resistant Acinetobacter baumannii AR 15-2 assessed as reduction in bacterial growth in the presence of Avibactam
Acinetobacter baumannii [4] = assay: Antibacterial activity against Carbapenem- resistant Acinetobacter baumannii 17-3 assessed as reduction in bacterial growth
Acinetobacter baumannii [5] = assay: Antibacterial activity against Carbapenem- resistant Acinetobacter baumannii 17-5 assessed as reduction in bacterial growth
Klebsiella pneumoniae [6] = assay: Antibacterial activity against Carbapenem- resistant Klebsiella pneumoniae KR 15-4 assessed as reduction in bacterial growth
Klebsiella pneumoniae [7] = assay: Antibacterial activity against Carbapenem- resistant Klebsiella pneumoniae KR 15-9 assessed as reduction in bacterial growth
Klebsiella pneumoniae [8] = assay: Antibacterial activity against Carbapenem- resistant Klebsiella pneumoniae KR 15-12 assessed as reduction in bacterial growth
Klebsiella pneumoniae [9] = assay: Antibacterial activity against Carbapenem- sensitive Klebsiella pneumoniae 17-1 overexpressing extended spectrum beta-lactamases assessed as reduction in bacterial growth
Klebsiella pneumoniae [10] = assay: Antibacterial activity against Carbapenem- sensitive Klebsiella pneumoniae 17-5 overexpressing extended spectrum beta-lactamases assessed as reduction in bacterial growth
Klebsiella pneumoniae [11] = assay: Antibacterial activity against Carbapenem- sensitive Klebsiella pneumoniae 17-6 overexpressing extended spectrum beta-lactamases assessed as reduction in bacterial growth
Klebsiella pneumoniae [12] = assay: Antibacterial activity against Carbapenem- sensitive Klebsiella pneumoniae 17-9 overexpressing extended spectrum beta-lactamases assessed as reduction in bacterial growth
Klebsiella pneumoniae [13] = assay: Antibacterial activity against Carbapenem- sensitive Klebsiella pneumoniae 17-10 overexpressing extended spectrum beta-lactamases assessed as reduction in bacterial growth
Klebsiella pneumoniae [14] = assay: Antibacterial activity against Carbapenem- sensitive Klebsiella pneumoniae 17-12 overexpressing extended spectrum beta-lactamases assessed as reduction in bacterial growth
Klebsiella pneumoniae [15] = assay: Antibacterial activity against Carbapenem- sensitive Klebsiella pneumoniae 17-13 overexpressing extended spectrum beta-lactamases assessed as reduction in bacterial growth
Klebsiella pneumoniae [16] = assay: Antibacterial activity against Carbapenem- sensitive Klebsiella pneumoniae 17-14 overexpressing extended spectrum beta-lactamases assessed as reduction in bacterial growth
Klebsiella pneumoniae [17] = assay: Antibacterial activity against Carbapenem- sensitive Klebsiella pneumoniae 17-15 overexpressing extended spectrum beta-lactamases assessed as reduction in bacterial growth
Klebsiella pneumoniae [18] = assay: Antibacterial activity against ESBLs negative Carbapenem-sensitive Klebsiella pneumoniae 17-16 assessed as reduction in bacterial growth
Klebsiella pneumoniae [19] = assay: Antibacterial activity against ESBLs negative Carbapenem-sensitive Klebsiella pneumoniae 17-20 assessed as reduction in bacterial growth
Escherichia coli [20] = assay: Antibacterial activity against ESBLs positive Carbapenem-sensitive Escherichia coli 17-3 assessed as reduction in bacterial growth
Escherichia coli [21] = assay: Antibacterial activity against ESBLs positive Carbapenem-sensitive Escherichia coli 17-5 assessed as reduction in bacterial growth
Escherichia coli [22] = assay: Antibacterial activity against ESBLs positive Carbapenem-sensitive Escherichia coli 17-10 assessed as reduction in bacterial growth
Escherichia coli [23] = assay: Antibacterial activity against ESBLs positive Carbapenem-sensitive Escherichia coli 17-11 assessed as reduction in bacterial growth
Escherichia coli [24] = assay: Antibacterial activity against ESBLs positive Carbapenem-sensitive Escherichia coli 17-15 assessed as reduction in bacterial growth
Escherichia coli [25] = assay: Antibacterial activity against ESBLs positive Carbapenem-sensitive Escherichia coli 17-17 assessed as reduction in bacterial growth
Escherichia coli [26] = assay: Antibacterial activity against ESBLs negative Carbapenem-sensitive Escherichia coli 17-9 assessed as reduction in bacterial growth
Enterobacter cloacae [27] = assay: Antibacterial activity against Enterobacter cloacae 17-3 assessed as reduction in bacterial growth
Enterobacter cloacae [28] = assay: Antibacterial activity against Enterobacter cloacae 17-4 assessed as reduction in bacterial growth
Enterobacter cloacae [29] = assay: Antibacterial activity against Enterobacter cloacae 17-5 assessed as reduction in bacterial growth
Enterobacter cloacae [30] = assay: Antibacterial activity against Enterobacter cloacae 17-8 assessed as reduction in bacterial growth
Enterobacter cloacae [31] = assay: Antibacterial activity against Enterobacter cloacae 17-9 assessed as reduction in bacterial growth
Enterobacter cloacae [32] = assay: Antibacterial activity against Enterobacter cloacae 17-10 assessed as reduction in bacterial growth
Klebsiella aerogenes [33] = assay: Antibacterial activity against Enterobacter aerogenes 17-3 assessed as reduction in bacterial growth
Klebsiella aerogenes [34] = assay: Antibacterial activity against Enterobacter aerogenes 17-4 assessed as reduction in bacterial growth
Klebsiella aerogenes [35] = assay: Antibacterial activity against Enterobacter aerogenes 15-4 assessed as reduction in bacterial growth
Pseudomonas aeruginosa [36] = assay: Antibacterial activity against Carbapenem- sensitive Pseudomonas aeruginosa 17-7 assessed as reduction in bacterial growth
Pseudomonas aeruginosa [37] = assay: Antibacterial activity against Carbapenem- sensitive Pseudomonas aeruginosa 17-9 assessed as reduction in bacterial growth
Pseudomonas aeruginosa [38] = assay: Antibacterial activity against Carbapenem- sensitive Pseudomonas aeruginosa 17-10 assessed as reduction in bacterial growth
Pseudomonas aeruginosa [39] = assay: Antibacterial activity against Carbapenem- sensitive Pseudomonas aeruginosa 17-21 assessed as reduction in bacterial growth
Pseudomonas aeruginosa [40] = assay: Antibacterial activity against Carbapenem- sensitive Pseudomonas aeruginosa 17-29 assessed as reduction in bacterial growth
Acinetobacter baumannii [41] = assay: Antibacterial activity against Carbapenem- resistant Acinetobacter baumannii 17-8 assessed as reduction in bacterial growth in the presence of Avibactam
Klebsiella pneumoniae [42] = assay: Bactericidal activity against Carbapenem- resistant Klebsiella pneumoniae KR 15-7 assessed as reduction in bacterial growth
Klebsiella pneumoniae [43] = assay: Bactericidal activity against ESBLs positive Carbapenem-sensitive Klebsiella pneumoniae 17-2 assessed as reduction in bacterial growth
Pseudomonas aeruginosa [44] = assay: Bactericidal activity against carbapenem-sensitive Pseudomonas aeruginosa 17-10 assessed as reduction in bacterial growth
Pseudomonas aeruginosa [45] = assay: Bactericidal activity against carbapenem-sensitive Pseudomonas aeruginosa 17-26 assessed as reduction in bacterial growth
Pseudomonas aeruginosa [46] = assay: Bactericidal activity against Pseudomonas aeruginosa ATCC 27853 assessed as reduction in bacterial growth
Acinetobacter baumannii [47] = assay: Bactericidal activity against Carbapenem- resistant Acinetobacter baumannii 17-6 assessed as reduction in bacterial growth in the presence of avibactam
Klebsiella pneumoniae [48] = assay: Bactericidal activity against ESBLs negative Carbapenem-sensitive Klebsiella pneumoniae 17-17 assessed as reduction in bacterial growth in the presence of avibactam
Escherichia coli [49] = assay: Bactericidal activity against ESBLs positive carbapenem-sensitive Escherichia coli 17-10 assessed as reduction in bacterial growth in the presence of avibactam
Escherichia coli [50] = assay: Bactericidal activity against Escherichia coli NCTC 13353 assessed as reduction in bacterial growth in the presence of avibactam
Acinetobacter baumannii [51] = assay: Bactericidal activity against Acinetobacter baumannii NCTC 13304 assessed as reduction in bacterial growth in the presence of avibactam
Pseudomonas aeruginosa [52] = assay: Antibacterial activity against Carbapenem- sensitive Pseudomonas aeruginosa 17-30 assessed as reduction in bacterial growth

For Nc1nc(/C(=N/OCc2cc(=O)c(O)cn2O)C(=O)N[C@@H]2C(=O)N3C(C(=O)O)=CCS[C@H]23)cs1, the MIC (Enterococcus faecalis) was > 64 µg/mL, the MIC (Klebsiella pneumoniae [1]) was 64 µg/mL (≈ 126 µM) and the MIC (Klebsiella pneumoniae [2]) was 64 µg/mL (≈ 126 µM). The MIC (Acinetobacter baumannii [3]) was 16 µg/mL, the MIC (Acinetobacter baumannii [4]) was > 64 µg/mL and the MIC (Acinetobacter baumannii [5]) was > 64 µg/mL. The MIC (Klebsiella pneumoniae [6]) was > 64 µg/mL, the MIC (Klebsiella pneumoniae [7]) was > 64 µg/mL and the MIC (Klebsiella pneumoniae [8]) was > 64 µg/mL. The MIC (Klebsiella pneumoniae [9]) was 64 µg/mL (≈ 126 µM), the MIC (Klebsiella pneumoniae [10]) was 8 µg/mL (≈ 15.7 µM) and the MIC (Klebsiella pneumoniae [11]) was 0.25 µg/mL (≈ 0.492 µM). For the same compound, the MIC (Klebsiella pneumoniae [12]) was 64 µg/mL (≈ 126 µM), the MIC (Klebsiella pneumoniae [13]) was > 64 µg/mL and the MIC (Klebsiella pneumoniae [14]) was 1 µg/mL (≈ 1.97 µM). The MIC (Klebsiella pneumoniae [15]) was 1 µg/mL (≈ 1.97 µM), the MIC (Klebsiella pneumoniae [16]) was 4 µg/mL (≈ 7.87 µM) and the MIC (Klebsiella pneumoniae [17]) was 64 µg/mL (≈ 126 µM). The MIC (Klebsiella pneumoniae [18]) was 0.5 µg/mL (≈ 0.983 µM), the MIC (Klebsiella pneumoniae [19]) was 0.06 µg/mL (≈ 0.118 µM) and the MIC (Escherichia coli [20]) was 2 µg/mL (≈ 3.93 µM). The MIC (Escherichia coli [21]) was 64 µg/mL (≈ 126 µM), the MIC (Escherichia coli [22]) was 4 µg/mL (≈ 7.87 µM) and the MIC (Escherichia coli [23]) was > 64 µg/mL. For the same compound, the MIC (Escherichia coli [24]) was > 64 µg/mL, the MIC (Escherichia coli [25]) was > 64 µg/mL and the MIC (Escherichia coli [26]) was 0.5 µg/mL (≈ 0.983 µM). The MIC (Enterobacter cloacae [27]) was 64 µg/mL (≈ 126 µM), the MIC (Enterobacter cloacae [28]) was 1 µg/mL (≈ 1.97 µM) and the MIC (Enterobacter cloacae [29]) was 32 µg/mL (≈ 62.9 µM). For the same compound, the MIC (Enterobacter cloacae [30]) was 16 µg/mL (≈ 31.5 µM), the MIC (Enterobacter cloacae [31]) was 8 µg/mL (≈ 15.7 µM) and the MIC (Enterobacter cloacae [32]) was 1 µg/mL (≈ 1.97 µM). The MIC (Klebsiella aerogenes [33]) was 2 µg/mL (≈ 3.93 µM), the MIC (Klebsiella aerogenes [34]) was 8 µg/mL (≈ 15.7 µM) and the MIC (Klebsiella aerogenes [35]) was 4 µg/mL (≈ 7.87 µM). The MIC (Pseudomonas aeruginosa [36]) was 0.25 µg/mL (≈ 0.492 µM), the MIC (Pseudomonas aeruginosa [37]) was 4 µg/mL (≈ 7.87 µM) and the MIC (Pseudomonas aeruginosa [38]) was 2 µg/mL (≈ 3.93 µM). It also gave an MIC (Pseudomonas aeruginosa [39]) of 4 µg/mL (≈ 7.87 µM), an MIC (Pseudomonas aeruginosa [40]) of 2 µg/mL (≈ 3.93 µM) and an MIC (Acinetobacter baumannii [41]) of 16 µg/mL. For the same compound, the MBC (Klebsiella pneumoniae [42]) was > 64 µg/mL, the MBC (Klebsiella pneumoniae [43]) was 2 µg/mL (≈ 3.93 µM) and the MBC (Pseudomonas aeruginosa [44]) was 8 µg/mL (≈ 15.7 µM). For the same compound, the MBC (Pseudomonas aeruginosa [45]) was > 16 µg/mL, the MBC (Pseudomonas aeruginosa [46]) was 16 µg/mL (≈ 31.5 µM) and the MBC (Acinetobacter baumannii [47]) was 16 µg/mL. For the same compound, the MBC (Klebsiella pneumoniae [48]) was 1 µg/mL, the MBC (Escherichia coli [49]) was 0.5 µg/mL and the MBC (Escherichia coli [50]) was 0.5 µg/mL. It also gave an MBC (Acinetobacter baumannii [51]) of 16 µg/mL and an MIC (Pseudomonas aeruginosa [52]) of 1 µg/mL (≈ 1.97 µM).
